Reference: US9108944B2, “Androgen receptor modulators and uses thereof” (ARAGON PHARMACEUTICALS, INC., priority 2010, dated 2015)

Molecular target: T1, AR-VP16 (Homo sapiens, UniProt P10275)
T1 sequence (P10275 560-920 limits assumed): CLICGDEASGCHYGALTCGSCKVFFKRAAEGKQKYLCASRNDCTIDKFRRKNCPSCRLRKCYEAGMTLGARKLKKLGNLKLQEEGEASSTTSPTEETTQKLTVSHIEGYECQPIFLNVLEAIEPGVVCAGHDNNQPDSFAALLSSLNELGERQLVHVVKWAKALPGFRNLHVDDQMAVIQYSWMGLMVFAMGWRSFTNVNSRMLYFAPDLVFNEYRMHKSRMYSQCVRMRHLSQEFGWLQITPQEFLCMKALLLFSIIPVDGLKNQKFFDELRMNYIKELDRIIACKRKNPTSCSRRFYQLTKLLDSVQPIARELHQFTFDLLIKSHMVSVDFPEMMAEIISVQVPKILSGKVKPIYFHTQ
Test: AR-VP16 DNA Binding Assay, antagonist mode (HepG2 cells, 0.1 nM R1881)
Type: cell-based
Method: Cells were transiently transfected using Lipofectin (Life Technologies) according to the manufacturer's protocol. […] Transfected cells were incubated overnight then treated with ligand. […] For antagonist assays, the compounds were serially diluted and 50 μL of compound with RPMI supplemented with charcoal stripped serum plus methyltrienolone (R1881) were added to the cells. The final R1881 concentration used in the antagonist assays was 0.1 nM. Following 48 hour incubation the medium was removed and the cells were lysed in 40 μL of lysis buffer (25 mM Tris Phosphate, 2 mM CDTA, 10% Glycerol, 0.5% Triton X-100, 2 mM DTT).

N#Cc1ncc(N2C(=O)C3(CCC3)N(c3ccc(Br)c(F)c3)C2=S)cc1C(F)(F)F [Compound 4, 5-(5-(4-Bromo-3-fluorophenyl)-8-oxo-6-thioxo-5,7-diazaspiro[3.4]octan-7-yl)-3-(trifluoromethyl)picolinonitrile]
IC50: < 1000 nM

N#Cc1ncc(N2C(=O)C3(CCC3)N(c3ccc4ccccc4c3)C2=S)cc1C(F)(F)F [Compound 9, 5-(5-(Naphthalen-2-yl)-8-oxo-6-thioxo-5,7-diazaspiro[3.4]octan-7-yl)-3-(trifluoromethyl)picolinonitrile]
IC50: < 1000 nM

N#Cc1ncc(N2C(=O)C3(CCC3)N(c3ccc(-c4ccccc4)cc3)C2=S)cc1C(F)(F)F [Compound 13, 5-(5-([1,1′-Biphenyl]-4-yl)-8-oxo-6-thioxo-5,7-diazaspiro[3.4]octan-7-yl)-3-(trifluoromethyl)picolinonitrile]
IC50: < 1000 nM

N#Cc1ncc(N2C(=O)C3(CCC3)N(c3ccc(-c4cccnc4)cc3)C2=S)cc1C(F)(F)F [Compound 17, 5-(8-Oxo-5-(4-(pyridin-3-yl)phenyl)-6-thioxo-5,7-diazaspiro[3.4]octan-7-yl)-3-(trifluoromethyl)picolinonitrile]
IC50: < 1000 nM

N#Cc1ncc(N2C(=O)C3(CCC3)N(c3cccnc3)C2=S)cc1C(F)(F)F [Compound 19, 5-(8-Oxo-5-(pyridin-3-yl)-6-thioxo-5,7-diazaspiro[3.4]octan-7-yl)-3-(trifluoromethyl)picolinonitrile]
IC50: > 1000 nM

Cc1cccc(N2C(=S)N(c3cnc(C#N)c(C(F)(F)F)c3)C(=O)C23CCC3)c1 [Compound 21, 5-(8-Oxo-6-thioxo-5-(m-tolyl)-5,7-diazaspiro[3.4]octan-7-yl)-3-(trifluoromethyl)picolinonitrile]
IC50: < 1000 nM

Cc1ccc(N2C(=S)N(c3ccc4nnc(C(F)(F)F)n4n3)C(=O)C23CCC3)cc1 [Compound 30, 6-Thioxo-5-(p-tolyl)-7-(3-(trifluoromethyl)-[1,2,4]triazolo[4,3-b]pyridazin-6-yl)-5,7-diazaspiro[3.4]octan-8-one]
IC50: < 1000 nM

Cc1ccc(N2C(=S)N(c3ccc(C#N)c4ncccc34)C(=O)C23CCC3)cc1 [Compound 36, 5-(8-Oxo-6-thioxo-5-(p-tolyl)-5,7-diazaspiro[3.4]octan-7-yl)quinoline-8-carbonitrile]
IC50: < 1000 nM

CNC(=O)c1ccc(N2C(=S)N(c3ccc(C#N)c4ncccc34)C(=O)C23CCC3)cc1F [Compound 37, 4-(7-(8-Cyanoquinolin-5-yl)-8-oxo-6-thioxo-5,7-diazaspiro[3.4]octan-5-yl)-2-fluoro-N-methylbenzamide]
IC50: < 1000 nM

N#Cc1ncc(N2C(=O)C3(CCC3)N(c3ccc(Oc4ccccn4)cc3)C2=S)cc1C(F)(F)F [Compound 41, 5-(8-Oxo-5-(4-(pyridin-2-yloxy)phenyl)-6-thioxo-5,7-diazaspiro[3.4]octan-7-yl)-3-(trifluoromethyl)picolinonitrile]
IC50: < 1000 nM

N#Cc1ncc(N2C(=O)C3(CCC3)N(c3ccc(Oc4cncnc4)cc3)C2=S)cc1C(F)(F)F [Compound 42, 5-(8-Oxo-5-(4-(pyrimidin-5-yloxy)phenyl)-6-thioxo-5,7-diazaspiro[3.4]octan-7-yl)-3-(trifluoromethyl)picolinonitrile]
IC50: < 1000 nM

CNC(=O)c1ccc(N2C(=S)N(c3cnc(C#N)c(C(F)(F)F)c3)C(=O)C2(C)C)cc1F [Compound 43, 4-(3-(6-Cyano-5-(trifluoromethyl)pyridin-3-yl)-5,5-dimethyl-4-oxo-2-thioxoimidazolidin-1-yl)-2-fluoro-N-methylbenzamide]
IC50: < 1000 nM

CNC(=O)c1ccc(N2C(=S)N(c3cnc(C#N)c(C)c3)C(=O)C2(C)C)cc1F [Compound 47, 4-(3-(6-Cyano-5-methylpyridin-3-yl)-5,5-dimethyl-4-oxo-2-thioxoimidazolidin-1-yl)-2-fluoro-N-methylbenzamide]
IC50: < 1000 nM

N#Cc1ncc(N2C(=O)C3(CCC3)N(c3ccccc3)C2=S)cc1C(F)(F)F [Compound 48, 5-(8-Oxo-5-phenyl-6-thioxo-5,7-diazaspiro[3.4]octan-7-yl)-3-(trifluoromethyl)picolinonitrile]
IC50: < 1000 nM

N#Cc1ncc(N2C(=O)C3(CCC3)N(c3ccc4ccncc4c3)C2=S)cc1C(F)(F)F [Compound 52, 5-(5-(Isoquinolin-7-yl)-8-oxo-6-thioxo-5,7-diazaspiro[3.4]octan-7-yl)-3-(trifluoromethyl)picolinonitrile]
IC50: < 1000 nM

N#Cc1ncc(N2C(=O)C3(CCC3)N(C3CCCCC3)C2=S)cc1C(F)(F)F [Compound 53, 5-(5-Cyclohexyl-8-oxo-6-thioxo-5,7-diazaspiro[3.4]octan-7-yl)-3-(trifluoromethyl)picolinonitrile]
IC50: < 1000 nM

N#Cc1ccc(N2C(=O)C3(CCC3)N(c3ccc(O)c(F)c3)C2=S)c2cccnc12 [Compound 55, 5-(5-(3-Fluoro-4-hydroxyphenyl)-8-oxo-6-thioxo-5,7-diazaspiro[3.4]octan-7-yl)quinoline-8-carbonitrile]
IC50: < 1000 nM

N#Cc1ccc(N2C(=S)N(c3cnc(C#N)c(C(F)(F)F)c3)C(=O)C23CCC3)cc1F [Compound 56, 5-(5-(4-Cyano-3-fluorophenyl)-8-oxo-6-thioxo-5,7-diazaspiro[3.4]octan-7-yl)-3-(trifluoromethyl)picolinonitrile]
IC50: < 1000 nM

CNC(=O)c1ccc(N2C(=S)N(c3cnc(C#N)c(Cl)c3)C(=O)C23CCC3)cc1F [Compound 58, 4-(7-(5-Chloro-6-cyanopyridin-3-yl)-8-oxo-6-thioxo-5,7-diazaspiro[3.4]octan-5-yl)-2-fluoro-N-methylbenzamide]
IC50: < 1000 nM

N#Cc1ncc(N2C(=O)C3(CCC3)N(c3ccc(O)cc3F)C2=S)cc1C(F)(F)F [Compound 64, 5-(5-(2-Fluoro-4-hydroxyphenyl)-8-oxo-6-thioxo-5,7-diazaspiro[3.4]octan-7-yl)-3-(trifluoromethyl)picolinonitrile]
IC50: < 1000 nM

CNC(=O)c1ccc(N2C(=S)N(c3cnc(C#N)c4ccccc34)C(=O)C23CCC3)cc1F [Compound 66, 4-(7-(1-Cyanoisoquinolin-4-yl)-8-oxo-6-thioxo-5,7-diazaspiro[3.4]octan-5-yl)-2-fluoro-N-methylbenzamide]
IC50: < 1000 nM

N#Cc1ncc(N2C(=O)C3(CCC3)N(c3cccc(CO)c3)C2=S)cc1C(F)(F)F [Compound 67, 5-(5-(3-(Hydroxymethyl)phenyl)-8-oxo-6-thioxo-5,7-diazaspiro[3.4]octan-7-yl)-3-(trifluoromethyl)picolinonitrile]
IC50: < 1000 nM

N#Cc1ccc(N2C(=S)N(c3cnc(C#N)c(C(F)(F)F)c3)C(=O)C23CCC3)c(F)c1 [Compound 70, 5-(5-(4-Cyano-2-fluorophenyl)-8-oxo-6-thioxo-5,7-diazaspiro[3.4]octan-7-yl)-3-(trifluoromethyl)picolinonitrile]
IC50: < 1000 nM

N#Cc1ncc(N2C(=O)C3(CCC3)N(c3cc(F)ccc3F)C2=S)cc1C(F)(F)F [Compound 74, 5-(5-(2,5-Difluorophenyl)-8-oxo-6-thioxo-5,7-diazaspiro[3.4]octan-7-yl)-3-(trifluoromethyl)picolinonitrile]
IC50: < 1000 nM

N#Cc1ncc(N2C(=O)C3(CCC3)N(c3c(F)ccc(F)c3F)C2=S)cc1C(F)(F)F [Compound 75, 5-(8-Oxo-6-thioxo-5-(2,3,6-trifluorophenyl)-5,7-diazaspiro[3.4]octan-7-yl)-3-(trifluoromethyl)picolinonitrile]
IC50: < 1000 nM

CNC(=O)c1ccc(N2C(=S)N(c3cnc(C#N)c(C(F)(F)F)c3)C(=O)C23CCC3)cc1 [Compound 79, 4-(7-(6-Cyano-5-(trifluoromethyl)pyridin-3-yl)-8-oxo-6-thioxo-5,7-diazaspiro[3.4]octan-5-yl)-N-methylbenzamide]
IC50: < 1000 nM

CS(=O)(=O)c1ccc(N2C(=S)N(c3cnc(C#N)c(C(F)(F)F)c3)C(=O)C23CCC3)cc1 [Compound 80, 5-(5-(4-(Methylsulfonyl)phenyl)-8-oxo-6-thioxo-5,7-diazaspiro[3.4]octan-7-yl)-3-(trifluoromethyl)picolinonitrile]
IC50: < 1000 nM

Cc1ccc(N2C(=S)N(c3ccc(C#N)n4nccc34)C(=O)C23CCC3)cc1 [Compound 82, 4-(8-Oxo-6-thioxo-5-(p-tolyl)-5,7-diazaspiro[3.4]octan-7-yl)pyrazolo[1,5-a]pyridine-7-carbonitrile]
IC50: < 1000 nM

N#Cc1ncc(N2C(=O)C3(CCC3)N(c3ccc4[nH]ncc4c3)C2=S)cc1C(F)(F)F [Compound 87, 5-(5-(1H-Indazol-5-yl)-8-oxo-6-thioxo-5,7-diazaspiro[3.4]octan-7-yl)-3-(trifluoromethyl)picolinonitrile]
IC50: < 1000 nM

CN(Cc1ccncc1)Cc1ccc(N2C(=S)N(c3cnc(C#N)c(C(F)(F)F)c3)C(=O)C23CCC3)cc1 [Compound 92, 5-(5-(4-((Methyl(pyridin-4-ylmethyl)amino)methyl)phenyl)-8-oxo-6-thioxo-5,7-diazaspiro[3.4]octan-7-yl)-3-(trifluoromethyl)picolinonitrile]
IC50: < 1000 nM

Cc1ccc(N2C(=S)N(c3ccc(C#N)c4ccccc34)C(=O)C23CCC3)cc1 [Compound 94, 4-(8-Oxo-6-thioxo-5-(p-tolyl)-5,7-diazaspiro[3.4]octan-7-yl)-1-naphthonitrile]
IC50: < 1000 nM
